Measurements taken from patent US10131652B2, “Pyrimidinyloxy benzene derivatives as herbicides” (E. I. DU PONT DE NEMOURS AND COMPANY, priority 2014, dated 2018).
Where two headings read alike, the source gives them in different places.

What was measured:
Format in all cases: in vivo
wild oat (Avena fatua) = assay: Test D postemergence plant response
How it was run: (§1)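 Visual 0–100 rating vs controls (0 = no effect, 100 = complete control), scored 13–15 d after postemergence spray. Plants 1- to 4-leaf stage (2–18 cm), potted in peat/vermiculite mix, kept in greenhouse.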

[1] = system: chickweed (common chickweed, Stellaria media); assay: Test D postemergence plant response
How it was run: as §1

kochia (Kochia scoparia) [2] = assay: Test D postemergence plant response
How it was run: as §1

[3] = system: galium (catchweed bedstraw, Galium aparine); assay: Test B postemergence plant response
How it was run: (§2)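 Pots, loam soil + sand; postemergence treatment at 1–2 leaf stage, 2–10 cm; greenhouse ~10 d; visual injury score 0 (none) to 100 (complete control) relative to untreated controls.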

[4] = system: blackgrass (Alopecurus myosuroides); assay: Test B postemergence plant response
How it was run: as §2

[5] = system: barnyardgrass (Echinochloa crus-galli); assay: Test B pre-/postemergence plant response; details: for pest or weed control at 125 g/ha / pest or weed control at 500 g/ha: Echinochloa crus-galli, 240 h, read-out: Plant response rating, Barnyardgrass
How it was run: (§3)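 Scoring used a 0–100 scale (100 = complete control) by visual comparison with untreated plants after approximately 10 days in the greenhouse. Compounds, in surfactant-containing non-phytotoxic solvent, were sprayed onto soil at planting or onto 2–10 cm seedlings.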

[6] = system: ragweed (common ragweed, Ambrosia elatior); assay: Test B pre-/postemergence plant response
How it was run: as §3

[7] = system: wheat (Triticum aestivum); assay: Test B pre-/postemergence plant response
How it was run: as §3

kochia (Kochia scoparia) [8] = assay: Test B pre-/postemergence plant response
How it was run: as §3

corn (Zea mays) = assay: Test B pre-/postemergence plant response
How it was run: as §3

[9] = system: giant foxtail (Setaria faberii); assay: Test B pre-/postemergence plant response; details: for pest or weed control at 125 g/ha / pest or weed control at 500 g/ha: Setaria faberi, 240 h, read-out: Plant response rating, Foxtail, Giant
How it was run: as §3

[10] = system: Italian ryegrass (Lolium multiflorum); assay: Test B pre-/postemergence plant response
How it was run: as §3

[11] = system: pigweed (Amaranthus retroflexus); assay: Test B pre-/postemergence plant response; details: for pest or weed control at 125 g/ha / pest or weed control at 500 g/ha: Amaranthus retroflexus, 240 h, read-out: Plant response rating, Pigweed
How it was run: as §3

[12] = system: barnyardgrass (Echinochloa crus-galli); assay: Test C flooded paddy test plant response; details: Flood, 250 g ai/ha, scale of 0 to 100 where 0 is no effect and 100 is complete control, 13 to 15 days
How it was run: (§4)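 Scale 0 (no effect) to 100 (complete control), assigned visually versus controls after 13–15 d greenhouse. Application: directly to paddy water, 3 cm flood depth kept constant, 2-leaf stage.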

rice (Oryza sativa) = assay: Test C flooded paddy test plant response; details: Flood, 250 g ai/ha, scale of 0 to 100 where 0 is no effect and 100 is complete control, 13 to 15 days
How it was run: as §4

[13] = system: small-flower umbrella sedge (Cyperus difformis); assay: Test C flooded paddy test plant response; details: Flood, 250 g ai/ha, scale of 0 to 100 where 0 is no effect and 100 is complete control, 13 to 15 days
How it was run: as §4

[14] = system: ducksalad (Heteranthera limosa); assay: Test C flooded paddy test plant response; details: Flood, 250 g ai/ha, scale of 0 to 100 where 0 is no effect and 100 is complete control, 13 to 15 days
How it was run: as §4

[15] = 125 g ai/ha, postemergence, 0 to 100 scale, 0 no effect, 100 complete control
[16] = Postemergence, 500 g ai/ha, 0 to 100 scale (0 no effect, 100 complete control)
[17] = post-emergence, 125 g ai/ha, postemergence, 0 to 100 scale, 0 no effect, 100 complete control
[18] = post-emergence, Postemergence, 500 g ai/ha, 0 to 100 scale (0 no effect, 100 complete control)
[19] = pre-emergence, Preemergence, 125 g ai/ha, 0 to 100 scale where 0 is no effect and 100 is complete control
[20] = pre-emergence, Preemergence, 500 g ai/ha, 0 to 100 scale where 0 is no effect and 100 is complete control
[21] = Preemergence, 125 g ai/ha, 0 to 100 scale where 0 is no effect and 100 is complete control
[22] = Preemergence, 500 g ai/ha, 0 to 100 scale where 0 is no effect and 100 is complete control
[23] = 16 g ai/ha, scale 0 to 100 (0 no effect, 100 complete control)
[24] = 31 g ai/ha, scale 0 to 100 (0 no effect, 100 complete control)
[25] = 62 g ai/ha, scale 0 to 100, 0 no effect, 100 complete control
[26] = 125 g ai/ha, scale 0 to 100, 0 no effect, 100 complete control

FC(F)c1cc(-c2ccccc2Oc2ncc(Cl)cn2)on1 [Compound 53, 5-chloro-2-[2-[3-(difluoromethyl)-5-isoxazolyl]phenoxy]pyrimidine]
pest or weed control at 16 g/ha (wild oat (Avena fatua); Avena fatua, post-emergence, 16 g ai/ha, scale 0 to 100 (0 no effect, 100 complete control), read-out: Oat, Wild plant response rating): 5% | pest or weed control at 31 g/ha (wild oat (Avena fatua); Avena fatua, post-emergence, 31 g ai/ha, scale 0 to 100 (0 no effect, 100 complete control), read-out: Oat, Wild plant response rating): 10% | pest or weed control at 62 g/ha (wild oat (Avena fatua); Avena fatua, post-emergence, 62 g ai/ha, scale 0 to 100, 0 no effect, 100 complete control, read-out: Plant response rating, Oat, Wild): 30% | pest or weed control at 125 g/ha (wild oat (Avena fatua); Avena fatua, post-emergence, 125 g ai/ha, scale 0 to 100, 0 no effect, 100 complete control, read-out: Plant response rating, Oat, Wild): 20% | pest or weed control at 16 g/ha ([1]; Stellaria media, post-emergence, 16 g ai/ha, scale 0 to 100 (0 no effect, 100 complete control), read-out: Chickweed plant response rating): 50% | pest or weed control at 31 g/ha ([1]; Stellaria media, post-emergence, 31 g ai/ha, scale 0 to 100 (0 no effect, 100 complete control), read-out: Chickweed plant response rating): 80% | pest or weed control at 62 g/ha ([1]; Stellaria media, post-emergence, 62 g ai/ha, scale 0 to 100, 0 no effect, 100 complete control, read-out: Plant response rating, Chickweed): 80% | pest or weed control at 125 g/ha ([1]; Stellaria media, post-emergence, 125 g ai/ha, scale 0 to 100, 0 no effect, 100 complete control, read-out: Plant response rating, Chickweed): 90% | pest or weed control at 16 g/ha (kochia (Kochia scoparia) [2]; Bassia scoparia, post-emergence, 16 g ai/ha, scale 0 to 100 (0 no effect, 100 complete control), read-out: Kochia plant response rating): 90% | pest or weed control at 31 g/ha (kochia (Kochia scoparia) [2]; Bassia scoparia, post-emergence, 31 g ai/ha, scale 0 to 100 (0 no effect, 100 complete control), read-out: Kochia plant response rating): 100% | pest or weed control at 62 g/ha (kochia (Kochia scoparia) [2]; Bassia scoparia, post-emergence, 62 g ai/ha, scale 0 to 100, 0 no effect, 100 complete control, read-out: Plant response rating, Kochia): 100% | pest or weed control at 125 g/ha (kochia (Kochia scoparia) [2]; Bassia scoparia, post-emergence, 125 g ai/ha, scale 0 to 100, 0 no effect, 100 complete control, read-out: Plant response rating, Kochia): 100% | Plant response rating, Galium [3, 15]: 100 | Plant response rating, Galium [3, 16]: 100 | Plant response rating, Blackgrass [4, 15]: 100 | Plant response rating, Blackgrass [4, 16]: 100 | pest or weed control at 125 g/ha [5, 17]: 100% | pest or weed control at 500 g/ha [5, 18]: 100% | pest or weed control at 125 g/ha [5, 19]: 90% | pest or weed control at 500 g/ha [5, 20]: 100% | Plant response rating, Ragweed [6, 15]: 60 | Plant response rating, Ragweed [6, 16]: 90 | Plant response rating, Ragweed [6, 21]: 10 | Plant response rating, Ragweed [6, 22]: 50 | plant injury at 125 g/ha ([7]; Triticum aestivum, post-emergence, 240 h, 125 g ai/ha, postemergence, 0 to 100 scale, 0 no effect, 100 complete control, read-out: Plant response rating, Wheat): 40% | plant injury at 500 g/ha ([7]; Triticum aestivum, post-emergence, 240 h, Postemergence, 500 g ai/ha, 0 to 100 scale (0 no effect, 100 complete control), read-out: Plant response rating, Wheat): 80% | Plant response rating, Kochia (kochia (Kochia scoparia) [8]; [15]): 100 | Plant response rating, Kochia (kochia (Kochia scoparia) [8]; [16]): 100 | Plant response rating, Kochia (kochia (Kochia scoparia) [8]; [21]): 100 | Plant response rating, Kochia (kochia (Kochia scoparia) [8]; [22]): 100 | Corn plant response rating (crop injury, 0 = no effect, 100 = complete kill) at 125 g/ha (corn (Zea mays); Zea mays, post-emergence, 240 h, 125 g ai/ha, postemergence, 0 to 100 scale, 0 no effect, 100 complete control): 10% | Corn plant response rating (crop injury, 0 = no effect, 100 = complete kill) at 500 g/ha (corn (Zea mays); Zea mays, post-emergence, 240 h, Postemergence, 500 g ai/ha, 0 to 100 scale (0 no effect, 100 complete control)): 70% | pest or weed control at 125 g/ha [9, 17]: 100% | pest or weed control at 500 g/ha [9, 18]: 100% | pest or weed control at 125 g/ha [9, 19]: 90% | pest or weed control at 500 g/ha [9, 20]: 100% | Plant response rating, Ryegrass, Italian [10, 15]: 80 | Plant response rating, Ryegrass, Italian [10, 16]: 100 | Plant response rating, Ryegrass, Italian [10, 21]: 10 | Plant response rating, Ryegrass, Italian [10, 22]: 40 | pest or weed control at 125 g/ha [11, 17]: 100% | pest or weed control at 500 g/ha [11, 18]: 100% | pest or weed control at 125 g/ha [11, 19]: 100% | pest or weed control at 500 g/ha [11, 20]: 100% | pest or weed control at 250 g/ha ([12]; Echinochloa crus-galli, read-out: Barnyardgrass plant response rating): 20% | plant injury at 250 g/ha (rice (Oryza sativa); Oryza sativa, read-out: Rice plant response rating): 20% | pest or weed control at 250 g/ha ([13]; Cyperus difformis, read-out: Sedge, Umbrella plant response rating): 75% | pest or weed control at 250 g/ha ([14]; Heteranthera limosa, read-out: Ducksalad plant response rating): 80%

FC(F)(F)c1cc(-c2ccccc2Oc2ncc(Cl)cn2)ncn1 [Compound 54]
Oat, Wild plant response rating (wild oat (Avena fatua); [23]): 0 | Oat, Wild plant response rating (wild oat (Avena fatua); [24]): 0 | Plant response rating, Oat, Wild (wild oat (Avena fatua); [25]): 5 | Plant response rating, Oat, Wild (wild oat (Avena fatua); [26]): 5 | Chickweed plant response rating [1, 23]: 5 | Chickweed plant response rating [1, 24]: 5 | Plant response rating, Chickweed [1, 25]: 5 | Plant response rating, Chickweed [1, 26]: 5 | Kochia plant response rating (kochia (Kochia scoparia) [2]; [23]): 50 | Kochia plant response rating (kochia (Kochia scoparia) [2]; [24]): 55 | Plant response rating, Kochia (kochia (Kochia scoparia) [2]; [25]): 80 | Plant response rating, Kochia (kochia (Kochia scoparia) [2]; [26]): 80 | Plant response rating, Galium [3, 15]: 100 | Plant response rating, Galium [3, 16]: 100 | Plant response rating, Blackgrass [4, 15]: 70 | Plant response rating, Blackgrass [4, 16]: 80 | Plant response rating, Barnyardgrass [5, 15]: 20 | Plant response rating, Barnyardgrass [5, 16]: 100 | Plant response rating, Barnyardgrass [5, 21]: 60 | Plant response rating, Barnyardgrass [5, 22]: 100 | Plant response rating, Ragweed [6, 15]: 50 | Plant response rating, Ragweed [6, 16]: 60 | Plant response rating, Ragweed [6, 21]: 60 | Plant response rating, Ragweed [6, 22]: 70 | Plant response rating, Wheat [7, 15]: 0 | Plant response rating, Wheat [7, 16]: 0 | Plant response rating, Kochia (kochia (Kochia scoparia) [8]; [15]): 100 | Plant response rating, Kochia (kochia (Kochia scoparia) [8]; [16]): 100 | Plant response rating, Kochia (kochia (Kochia scoparia) [8]; [21]): 80 | Plant response rating, Kochia (kochia (Kochia scoparia) [8]; [22]): 100 | Plant response rating, Corn (corn (Zea mays); [15]): 0 | Plant response rating, Corn (corn (Zea mays); [16]): 0 | Plant response rating, Foxtail, Giant [9, 15]: 80 | Plant response rating, Foxtail, Giant [9, 16]: 100 | Plant response rating, Foxtail, Giant [9, 21]: 100 | Plant response rating, Foxtail, Giant [9, 22]: 100 | Plant response rating, Ryegrass, Italian [10, 15]: 30 | Plant response rating, Ryegrass, Italian [10, 16]: 60 | Plant response rating, Ryegrass, Italian [10, 21]: 30 | Plant response rating, Ryegrass, Italian [10, 22]: 60 | Plant response rating, Pigweed [11, 15]: 100 | Plant response rating, Pigweed [11, 16]: 100 | Plant response rating, Pigweed [11, 21]: 100 | Plant response rating, Pigweed [11, 22]: 100 | Barnyardgrass plant response rating [12]: 0 | Rice plant response rating (rice (Oryza sativa)): 0 | Sedge, Umbrella plant response rating [13]: 0 | Ducksalad plant response rating [14]: 60
